Values joined by “and” are separate entries in the source; they are usually repeats but may differ in a detail not shown here. Equal values may be shown once.
Assays:
[1] = target: human A2A receptors expressed in CHO cells (Homo sapiens, UniProt P29274); test: competition binding at human A2A adenosine receptors ([3H]NECA displacement); conditions: for Ki: displacement of [3H]NECA, CHO cells, 95% confidence limits, n = 3–6, read-out: Ki hA2A; for hA1/hA2A / hA3/hA2A: selectivity ratio of Ki values
Protocol: (§1) A two-step procedure was adopted to prepare membrane for radioligand binding from cells stably transfected with human adenosine receptor subtypes (hA1, hA2A and hA3 expressed on CHO cells). Firstly, cell fragments and nuclei were removed by using low-speed centrifugation (1,000 g for 10 min). After that, crude membrane fraction from supernatant was then sedimented at 100,000 g for 30 min. The membrane pellet was subsequently re-suspended in the specific binding buffer, frozen in liquid nitrogen and stored at -80°C. For measurement of adenylyl cyclase activity in the hA2B receptors, one-step centrifugation procedure was used; the homogenate was sedimented for 30 min at 54,000 g. The so-obtained crude membrane pellet was re-suspended in 50 mM Tris/HCl, pH 7.4 and used for the adenylyl cyclase assay immediately.
(§2) Non-specific binding was determined using theophylline 1 mM. […] Non-specific binding was determined using N^6-R-phenylisopropyl adenosine (R-PIA) 100 μM. ^41 The binding of [^3H]HEMADO to CHO cells transfected with hA3 adenosine receptors was carried out as described earlier. […] Non-specific binding was determined using R-PIA 100 μM.
(§3) The assay mixture was then filtered through the built-in filter at the bottom of the 96-well microplate filtration system (Millipore Multiscreen MAFC) and washed three times with 200 μL of cold buffer. After addition of 20 μL of scintillator to the dried filter plates, the filter bound radioactivity was counted on a Wallac Micro-Beta counter. All Ki values were calculated by non-linear curve fitting with the program SCTFIT [45].

[2] = test system: TAMH (TGF-α overexpressing mouse hepatocytes); test: cell viability assay in TAMH hepatocytes (Cell-Titer-Glo); assay type: cell-based; conditions: concentrations less than 30 μM, 24 h
Protocol: Besides the mutagenicity study, compounds 5 and 6 were also subjected to cell viability assays using transforming growth factor-alpha mouse hepatocyte (TAMH) and HL-1 cardiomyocyte to assess the cytotoxic potential. TAMH lines were treated with compounds 5 and 6 in eight different concentrations (100 μM, 33.3 μM, 11.1 μM, 3.7 μM, 1.23 μM, 0.41 μM, 0.13 μM, 0.045 μM), and the percentage of viable cells was plotted against the logarithm of ligand concentration (S10B and S10C Fig). […] Acetaminophen, a drug with direct hepatotoxic potential, was used as the positive control in this assay (S10A Fig). […] Doxorubicin, a chemotherapeutic agent known to cause dose-dependent cardiotoxicity, was used as the positive control in this assay (S10D Fig).
Immortalised hepatocyte and cardiomyocyte cell lines, TAMH (TGF-α overexpressing mouse hepatocytes) and HL-1 were used respectively as models for in vitro toxicity studies. Both cell lines were cultured in accordance with previously described methods. […] The cell-reagent mixture was transferred to a solid white flat-bottom 96-well plate (Greiner 655207) for luminescence reading. Luminescence was recorded with an integration time of 0.25 second with a Tecam Infinite® M200 Microplate reader. Data are expressed as percentage of viable cells compared to DMSO-treated controls. […]

[3] = target: T1, human A1 receptors expressed in CHO cells (Homo sapiens, UniProt P30542); test: competition binding at human A1 adenosine receptors ([3H]CCPA displacement); conditions: displacement of [3H]CCPA, 95% confidence limits, n = 3–6, read-out: Ki hA1
T1 sequence (P30542 1-326): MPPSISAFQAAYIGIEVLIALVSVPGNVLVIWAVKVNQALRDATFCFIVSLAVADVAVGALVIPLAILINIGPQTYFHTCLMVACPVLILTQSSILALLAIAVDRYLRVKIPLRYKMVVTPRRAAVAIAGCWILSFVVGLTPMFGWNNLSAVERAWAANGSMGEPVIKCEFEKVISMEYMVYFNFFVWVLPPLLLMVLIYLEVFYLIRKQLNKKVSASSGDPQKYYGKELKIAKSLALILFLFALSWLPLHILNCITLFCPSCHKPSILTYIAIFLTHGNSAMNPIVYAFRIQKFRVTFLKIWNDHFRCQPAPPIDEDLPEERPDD
Protocol: as §1, §2, §3

[4] = target: T2, human A3 receptors expressed in CHO cells (Homo sapiens, UniProt P0DMS8); test: competition binding at human A3 adenosine receptors ([3H]HEMADO displacement); conditions: displacement of [3H]HEMADO, 95% confidence limits, n = 3–6, read-out: Ki hA3
T2 sequence (P0DMS8 1-318): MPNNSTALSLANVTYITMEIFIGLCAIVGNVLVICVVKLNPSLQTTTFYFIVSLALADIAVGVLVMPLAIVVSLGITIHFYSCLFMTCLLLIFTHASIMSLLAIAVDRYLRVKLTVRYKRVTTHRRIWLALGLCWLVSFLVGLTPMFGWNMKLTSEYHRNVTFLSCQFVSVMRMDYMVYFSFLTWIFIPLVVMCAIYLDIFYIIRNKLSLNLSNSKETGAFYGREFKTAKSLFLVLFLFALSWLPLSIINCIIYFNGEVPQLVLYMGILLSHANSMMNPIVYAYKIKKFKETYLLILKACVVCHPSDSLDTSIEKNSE
Protocol: as §1, §2, §3

Sequence of human A2A receptors expressed in CHO cells (P29274 whole entry, the tested form may be a part): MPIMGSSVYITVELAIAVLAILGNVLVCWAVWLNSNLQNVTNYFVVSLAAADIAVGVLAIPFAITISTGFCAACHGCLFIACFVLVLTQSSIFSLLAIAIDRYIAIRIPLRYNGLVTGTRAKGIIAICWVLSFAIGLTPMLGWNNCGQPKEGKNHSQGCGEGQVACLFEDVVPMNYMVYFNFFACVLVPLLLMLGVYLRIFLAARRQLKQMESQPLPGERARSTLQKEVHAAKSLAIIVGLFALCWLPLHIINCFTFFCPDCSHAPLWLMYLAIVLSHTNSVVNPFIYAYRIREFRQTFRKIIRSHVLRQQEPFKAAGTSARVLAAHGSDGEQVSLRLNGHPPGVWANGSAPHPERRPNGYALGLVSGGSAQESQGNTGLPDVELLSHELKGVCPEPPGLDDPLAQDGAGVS

Row | SMILES | Ki [1] | hA1/hA2A [1] | hA3/hA2A [1] | cytotoxicity (cell viability) [2] | Ki [3] [µM] | Ki [4] [µM]
1 | Cc1cc(C)nc(N2CCN(C(=O)Cc3c(C)[nH]c4ccccc34)CC2)n1 [Compound 6, 1‐[4‐(4,6‐Dimethylpyrimidin‐2‐yl)piperazin‐1‐yl]‐2‐(2‐methyl‐1H‐indol‐3‐yl)ethan‐1‐one] | 8.71 µM | >11 | >11 | non-cytotoxic | > 100 | > 100
2 | Cc1cc(C)nc(N2CCN(C(=O)c3c[nH]c4ccccc34)CC2)n1 [Compound 5, 3‐[4‐(4,6‐Dimethylpyrimidin‐2‐yl)piperazine‐1‐carbonyl]‐1H‐indole] | 11.2 µM and 8.7 to 11.2 µM | >9 | >9 | non-cytotoxic | > 100 | > 100

Source: publication PMC5755735, “Discovery of indolylpiperazinylpyrimidines with dual-target profiles at adenosine A2A and dopamine D2 receptors for Parkinson's disease treatment” (PLoS ONE, 2018)
